Measurements published in US6642222B2, “Pyrano, piperidino, and thiopyrano compounds and methods of use” (Abbott Laboratories, priority 1998, dated 2003).
Where a name gives a salt, the structure may show the parent alone.

Assays:
Landrace Pig Bladder = experiment: Functional potassium channel opening activity in isolated bladder strips (field-stimulated twitch); details: for Index: ED50 for P1075 divided by ED50 for the test agonist, averaged over tissues; for Emax / EC50: Sus scrofa; for EC50: read-out: pD2 (converted)
Protocol: Compounds were evaluated for functional potassium channel opening activity using tissue strips obtained from Landrace pig bladders. Landrace pig bladders were obtained from female Landrace pigs of 9-30 kg. Landrace pigs were euthanized with an intraperitoneal injection of pentobarbital solution, Somlethal®, J. A. Webster Inc. Sterling Mass. The entire bladder was removed and immediately placed into Krebs Ringer bicarbonate solution (composition, mM: NaCl, 120; […] Dextrose, 4.7; […] Propranolol (0.004 mM) was included in all of the assays to block β-adrenoceptors. The trigonal and dome portions were […], Strips 3-5 […] (mm) wide and 20 mm long were prepared from the remaining tissue cut in a circular fashion. The mucosal layer was removed. One end was fixed to a stationary glass rod and the other to a Grass FT03 transducer at a basal preload of 1.0 g. Two parallel platinum electrodes were included in the stationary glass trod to provide field stimulation of 0.05 Hz, 0.5 milli-seconds at 20 volts. […] Tissues were allowed to equilibrate for at least 60 minutes and primed with 80 mM KCl. A control concentration response curve (cumulative) was generated for each tissue using the potassium channel opener […] as the control agonist. […] After a 60 minute rinsing period, a concentration response curve (cumulative) was generated for the test agonist in the same fashion as that used for the control agonist […]. The maximal efficacy of each compounds (expressed as % relative to […]) is reported. The amount of agent necessary to cause 50% of the agent's maximal response (ED50) was calculated using “ALLFIT” (DeLean et al., Am. J. […] Agonist potencies were also expressed as an index relative to […]. The index was calculated by dividing the ED50 for […] by the ED50 for the test agonist in a given tissue. Each tissue was used for only one test agonist, and the indices obtained from each tissue were averaged to provide an average index of potency.

[1] = tested on: Guinea-Pig Bladder (GPB) Cells; experiment: Membrane Hyperpolarization (MHP) assay, DiBAC(4)3 / FLIPR; details: for EC50: membrane hyperpolarization, GPB cells; for Emax: read-out: Maximal Response (% P1075), maximal steady-state hyperpolarization, normalized to 10 μM P1075 (100%); for Maximal Response (% P1075): maximal steady-state hyperpolarization, normalized to 10 μM P1075 (100%)
Protocol: Compounds were evaluated for potassium channel opening activity using primary cultured guinea-pig urinary bladder (GPB) cells.
For the preparation of urinary bladder smooth muscle cells, urinary bladders were removed from male guinea-pigs (Hartley, Charles River, Wilmington, Mass.) weighing 300-400 grams (g) and placed in ice-cold Ca^2+-free Krebs solution (Composition, millimolar (mM): KCl, 2.7; KH2PO4, 1.5; NaCl, 75; Na2HPO4, 9.6; Na2HPO4.7H2O, 8; MgSO4, 2; glucose, 5; HEPES, 10; pH 7.4). Cells were isolated by enzymatic dissociation (Klockner, U. and Isenberg, G., Pflugers Arch. (1985), 405, 329-339). The bladder was cut into small sections and incubated in 5 milliliters (mL) of the Kreb's solution containing 1 milligram per milliliter (mg/mL) of collagenase (Sigma, St. Louis, Mo.) and 0.2 mg/mL of pronase (Calbiochem, La Jolla, Calif.) with continuous stirring in a cell incubator for 30 minutes. The mixture was then centrifuged at 1300× g for 5 minutes, and the pellet resuspended in Dulbecco's phosphate buffered saline (PBS) (GIBCO, Gaithersburg, Md.) and recentrifuged to remove residual enzyme. The cell pellet was resuspended in 5 mL growth media (composition: Dulbecco's modified Eagle's medium supplemented with 10% fetal bovine serum, 100 units/mL penicillin, 100 units/mL streptomycin and 0.25 mg/mL amphotericin B) and further dissociated by pipetting the suspension through a flame-polished Pasteur pipette and passing it through a polypropylene mesh membrane (Spectrum, Houston, Tex.). The cell density was adjusted to 100,000 cells/mL by resuspension in growth media. Cells were plated in clear-bottomed black 96-well plates (Packard) for membrane potential studies at a density of 20,000 cells/well and maintained in a cell incubator with 90% air: 10% CO2 until confluent. Cells were confirmed to be of smooth muscle type by cytoskeletal staining using a monoclonal mouse anti human-α-smooth muscle actin (Biomeda, Foster City, Calif.).
Functional activity at potassium channels was measured by evaluating changes in membrane potential using the bis-oxonol dye DiBAC(4)3 (Molecular Probes) in a 96-well cell-based kinetic assay system using a Fluorescent Imaging Plate Reader (FLIPR) (K. S. Schroeder et al., J. Biomed. Screen., v. 1 pp. 75-81 (1996)). DiBAC(4)3 is an anionic potentiometric probe which partitions between cells and extracellular solution in a membrane potential-dependent manner. With increasing membrane potential (for example, K^+ depolarization), the probe further partitions into the cell; this is measured as an increase in fluorescence due to dye interaction with intracellular lipids and proteins. Conversely, decreasing membrane potential (hyperpolarization by potassium channel openers) evokes a decrease in fluorescence.
Confluent guinea-pig urinary bladder cells cultured in black clear-bottomed 96-well plates were rinsed twice with 200 mL assay buffer (composition, mM: HEPES, 20; NaCl, 120; KCl, 2; CaCl2, 2; MgCl2, 1; glucose, 5; pH 7.4 at 25° C.) containing 5 μM DiBAC(4)3 and incubated with 180 mL of the buffer in a cell incubator for 30 minutes at 37° C. to ensure dye distribution across the membrane. After recording the baseline fluorescence for 5 minutes, the reference or test compounds, prepared at 10 times the concentration in the assay buffer, were added directly to the wells. Changes in fluorescence were monitored for an additional 25 minutes.
Routinely, five concentrations of P1075 or test compounds (log or half-log dilutions) were evaluated and the maximal steady-state hyperpolarization values (expressed as % relative to P1075) plotted as a function of concentration. The EC50 (concentration that elicites 50% of the maximal response for the test sample) values were calculated by non-linear regression analysis using a four parameter sigmoidal equation. The maximal micromolar EC50 response of each compound (expressed as % relative to P1075) is reported.

[2] = maximal efficacy relative to P1075, field stimulated bladder strips

Row | Structure (SMILES) | EC50 ([1]; Cavia porcellus) [nM] | Emax ([1]; Cavia porcellus) [%] | EC50 [1] [nM] | other results
1 | O=C1COCC2=C1[C@@H](c1ccc(F)c(Br)c1)C1=C(COC1=O)N2 (single isomer, unassigned) [Example 42] | 26 | 102 | – | Index (Landrace Pig Bladder): 0.17; Emax (Landrace Pig Bladder; [2]): 95%; EC50 (Landrace Pig Bladder; negative logarithm of ED50): 631 nM
2 | O=C1COCC2=C1[C@H](c1ccc(F)c(Br)c1)C1=C(COC1=O)N2 (single isomer, unassigned) [Example 43] | 11 | 98 | – | Index (Landrace Pig Bladder): 0.68; Emax (Landrace Pig Bladder; [2]): 88%; EC50 (Landrace Pig Bladder; negative logarithm of ED50): 200 nM
3 | O=C1COCC2=C1[C@H](c1ccc(F)c(I)c1)C1=C(COC1=O)N2 (single isomer, unassigned) [Example 78] | 4.9 | 97 | – | Index (Landrace Pig Bladder): 0.79; Emax (Landrace Pig Bladder; [2]): 96%; EC50 (Landrace Pig Bladder; negative logarithm of ED50): 79.4 nM
4 | O=C1COCC2=C1[C@@H](c1ccc(F)c(I)c1)C1=C(COC1=O)N2 (single isomer, unassigned) [Example 79] | 14 | 90 | – | Index (Landrace Pig Bladder): 0.40; Emax (Landrace Pig Bladder; [2]): 95%; EC50 (Landrace Pig Bladder; negative logarithm of ED50): 158 nM
5 | Cc1ccc([C@H]2C3=C(COCC3=O)NC3=C2C(=O)OC3)cc1Br (single isomer, unassigned) [Example 81] | – | – | – | Index (Landrace Pig Bladder): 0.23; Emax (Landrace Pig Bladder; [2]): 93%; EC50 (Landrace Pig Bladder; negative logarithm of ED50): 398 nM
6 | Cc1ccc(C2C3=C(COCC3=O)NC3=C2C(=O)OC3)cc1I (single isomer, unassigned) [Example 82, 9-(3-iodo-4-methylphenyl)-5,9-dihydro-3H-furo [3,4-b]pyrano[4,3-e]pyridine-1,8(4H,7H)-dione] | – | – | – | Index (Landrace Pig Bladder): 1.4; Emax (Landrace Pig Bladder; [2]): 98%; EC50 (Landrace Pig Bladder; negative logarithm of ED50): 31.6 nM
7 | Cl.O=C1CCC2=C1C(c1ccc(F)c(Br)c1)C1=C(CNCC1=O)N2 (single isomer, unassigned; (+)) [Example 6, (+)-5-(3-bromo-4-fluorophenyl)-2,3,5,7,8,9-hexahydro-1H-cyclopenta[b][1,7]naphthyridine-4,6-dione Hydrochloride] | 1000 | 83 | – | Index (Landrace Pig Bladder; Hydrochloride): 0.022; Emax (Landrace Pig Bladder; [2]): 100%; EC50 (Landrace Pig Bladder; negative logarithm of ED50): 3980 nM
8 | Cl.O=C1CCCC2=C1C(c1ccc(F)c(Br)c1)C1=C(CNCC1=O)N2 (single isomer, unassigned; (+)) [Example 8, (+)-5-(3-bromo-4-fluorophenyl)-2,3,5,8,9,10-hexahydrobenzo[b][1,7]naphthyridine-4,6(1H, 7H)-dione Hydrochloride] | – | – | – | Index (Landrace Pig Bladder; Hydrochloride): 0.023; Efficacy (% P1075) (Landrace Pig Bladder; maximal efficacy relative to P1075, field stimulated bladder strips, Hydrochloride): 90 % P1075; pD2 (Landrace Pig Bladder; negative logarithm of ED50, Hydrochloride): 5.2; Maximal Response (% P1075) ([1]; Hydrochloride): 33 % P1075; EC50 ([1]; Hydrochloride): 5000 nM
9 | N#Cc1cccc(C2C3=C(COCC3=O)NC3=C2S(=O)(=O)CC3)c1 (single isomer, unassigned; (-)) [Example 16, (−) 9-(3-cyanophenyl)-2,3,5,9-tetrahydro-4H-pyrano [3,4-b]thieno[2,3-e]pyridin-8(7H)-one 1,1-dioxide] | – | – | 8800 | Maximal Response (% P1075) [1]: 57 % P1075
10 | O=C1CNCC2=C1C(c1ccc(F)c(Br)c1)C1=C(CNCC1=O)N2 [Example 4, 5-(3-bromo-4-fluorophenyl)-2,3,5,8,9,10-hexahydropyrido [3,4-b][1,7]naphthyridine-4,6(1H,7H)-dione Dihydrochloride] | – | 21 | – | –
11 | N#Cc1cccc(C2C3=C(COCC3=O)NC3=C2S(=O)(=O)CC3)c1 (stereo not shown) [Example 14, 9-(3-cyanophenyl)-2,3,5,9-tetrahydro-4H-pyrano[3,4-b]thieno[2,3-e]pyridin-8(7H)-one 1,1-dioxide] | – | – | 400 | Maximal Response (% P1075) [1]: 99 % P1075
12 | O=C1COCC2=C1C(c1ccc(Cl)c([N+](=O)[O-])c1)C1=C(CCS1(=O)=O)N2 (stereo not shown) [Example 17, 9-(4-chloro-3-nitrophenyl)-2,3,5,9-tetrahydro-4H-pyrano[3,4-b]thieno[2,3-e]pyridin-8(7H)-one 1,1-dioxide] | – | 93 | 4.2 | –
13 | O=C1COCC2=C1C(c1ccc(F)c(Br)c1)C1=C(CCCS1(=O)=O)N2 (stereo not shown) [Example 21, 10-(3-bromo-4-fluorophenyl)-3,4,6,10-tetrahadro-2H,5H-pyrano[3,4-b]thioyrano[2,3-e]pyridin-9(8H)-one 1,1-dioxide] | – | – | 66 | Maximal Response (% P1075) [1]: 79 % P1075
14 | O=C1CCC2=C1C(c1ccc(F)c(Br)c1)C1=C(COCC1=O)N2 (stereo not shown) [Example 23, 5-(3-bromo-4-fluorophenyl)-5,7,8,9-tetrahydrocyclopenta [b]pyrano[4,3-e]pyridine-4,6(1H,3H)-dione] | 40 | 82 | – | –
15 | O=C1COCC2=C1C(c1ccc(F)c(Br)c1)C1=C(COC1=O)N2 (stereo not shown) [Example 25, 9-(3-bromo-4-fluorophenyl)-5,9-dihydro-3H-furo [3,4-b]pyrano[4,3-e]pyridine-1,8(4H,7H)-dione] | 9.8 | 106 | – | –
16 | CN1CC2=C(C1=O)C(c1ccc(F)c(Br)c1)C1=C(COCC1=O)N2 (stereo not shown) [Example 26, 9-(3-bromo-4-fluorophenyl)-2-methyl-2,3,5,9-tetrahydropyrano[3,4-b]pyrrolo[3,4-e]pyridine-1,8(4H,7H)-dione] | 13 | 90 | – | –
17 | O=C1COCC2=C1C(c1ccc(F)c(Cl)c1)C1=C(CCNC1=O)N2 (stereo not shown) [Example 44, 10-(3-chloro-4-fluorophenyl)-3,4,6,10-tetrahydro-2H-pyrano [3,4-b][1,6]naphthyridine-1,9(5H,8H)-dione] | – | 96 | – | –
18 | O=C1COCC2=C1C(c1ccc(Cl)c(Cl)c1)C1=C(CCNC1=O)N2 (stereo not shown) [Example 45, 10-(3,4-dichlorophenyl)-3,4,6,10-tetrahydro-2H-pyrano [3,4-b][1,6]naphthyridine-1,9(5H,8H)-dione] | 200 | 85 | – | –
19 | O=C1COCC2=C1C(c1ccc(Cl)c(C(F)(F)F)c1)C1=C(CCNC1=O)N2 (stereo not shown) [Example 46, 10-[4-chloro-3-(trifluoromethyl)phenyl]-3,4,6,10-tetrahydro-2H-pyrano[3,4-b][1,6]naphthyridine-1,9(5H,8H)-dione] | 340 | 83 | – | –
20 | O=C1COCC2=C1C(c1ccc(Cl)c([N+](=O)[O-])c1)C1=C(CCNC1=O)N2 (stereo not shown) [Example 47, 10-(4-chloro-3-nitrophenyl)-3,4,6,10-tetrahydro-2H-pyrano[3,4-b][1,6]naphthyridine-1,9(5H,8H)-dione] | 490 | 91 | – | –
21 | O=C1COCC2=C1C(c1ccc(Br)c(Br)c1)C1=C(CCNC1=O)N2 (stereo not shown) [Example 48, 10-(3,4-dibromophenyl)-3,4,6,10-tetrahydro-2H-pyrano[3,4-b][1,6]naphthyridine-1,9(5H,8H)-dione] | 84 | 91 | – | –
22 | O=C1COCC2=C1C(c1csc([N+](=O)[O-])c1)C1=C(CCNC1=O)N2 (stereo not shown) [Example 49, 10-(5-nitro-3-thienyl)-3,4,6,10-tetrahydro-2H-pyrano [3,4-b][1,6]naphthyridine-1,9(5H,8H)-dione] | 2300 | 85 | – | –
23 | O=C1CCC2=C1C(c1ccc(F)c(Br)c1)C1=C(CSCC1=O)N2 (stereo not shown) [Example 51, 5-(3-bromo-4-fluorophenol)-5,7,8,9-tetrahydrocyclopenta [b]thiopyrano[4,3-e]pyridine-4,6(1H,3H)-dione] | – | – | 120 | Maximal Response (% P1075) [1]: 88 % P1075
24 | O=C1COCC2=C1C(c1ccc(Cl)c(C(F)(F)F)c1)C1=C(COCC1=O)N2 [Example 56, 5-[4-chloro-3-(trifluoromethyl)phenyl]-5,10-dihydro-1H, 3H-dipyrano[3,4-b:4,3-e]pyridine-4,6(7H,9H)-dione] | – | – | 15 | Maximal Response (% P1075) [1]: 96 % P1075
25 | O=C1COCC2=C1C(c1ccc(Br)c(Cl)c1)C1=C(COCC1=O)N2 [Example 60, 5-(4-bromo-3-chlorophenyl)-5,10-dihydro-1H,3H-dipyrano[3,4-b:4,3-e]pyridine-4,6(7H,9H)-dione] | – | – | 23 | Maximal Response (% P1075) [1]: 88 % P1075
26 | O=C1COCC2=C1C(c1ccc(Cl)c(Br)c1)C1=C(COCC1=O)N2 [Example 61, 5-(3-bromo-4-chlorophenyl)-5,10-dihydro-1H,3H-dipyrano[3,4-b:4,3-e]pyridine-4,6(7H,9H)-dione] | – | – | 6.3 | Maximal Response (% P1075) [1]: 97 % P1075
27 | O=C1COCC2=C1C(c1ccc(C(F)(F)F)c(I)c1)C1=C(COCC1=O)N2 [Example 62, 5-[3-iodo-4-(trifluoromethyl)phenyl]-5,10-dihydro-1H,3H-dipyrano[3,4-b:4,3-e]pyridine-4,6(7H,9H)-dione] | – | – | 58 | Maximal Response (% P1075) [1]: 77 % P1075
28 | CCC(C)(C)N=C(NC#N)Nc1cccnc1 [Example P1075, reference compound] | – | – | – | stimulated twitch (Landrace Pig Bladder; control agonist, 10^−9 to 10^−5 M, dose dependent): completely eliminated the stimulated twitch
